The target in assay [1] is T1, SMARCA2-HiBiT HeLa cells (protein which is expressed from the SMARCA2 gene) (Homo sapiens, UniProt P51531).
T1 construct: protein which is expressed from the SMARCA2 and SMARCA4 genes; host or cells: HeLa (SMARCA2-HiBiT engineered line)
As to the kind of experiment: SMARCA2 degradation assay (HiBiT-fusion HeLa cell line, 24 h, luminescence). It is filed as cell-based. In outline:
(§1)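 HiBiT-fusion HeLa lines, 8,000 cells/well, overnight attachment; cpd 10-pt series (typically 10 μM–300 pM), 24 h, 37° C. Lysis with LgBiT + HiBiT substrate, 10 min shaking at RT, luminescence read. DC50 from dose-response fit; % degradation also scored at 1 μM.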
(In general: The HiBiT peptide binds its large partner to form an active luciferase.)

The target of assay [2] is T2, SMARCA4-HiBiT HeLa cells (protein which is expressed from the SMARCA4 gene) (Homo sapiens, UniProt P51532).
T2 construct: protein which is expressed from the SMARCA2 and SMARCA4 genes; host or cells: HeLa (SMARCA4-HiBiT engineered line)
The experiment in a line: SMARCA4 degradation assay (HiBiT-fusion HeLa cell line, 24 h, luminescence). It is filed as cell-based. In outline:
as §1

What is called DC50 is the concentration at which degradation of the target reaches its halfway point. Read a low DC50 as degradation at low concentration. In general, inhibition refers to the change of the read-out against control, counted positive when it falls. Low readings indicate a response near the control, high ones a response far below the control.

T2 sequence (P51532 whole entry): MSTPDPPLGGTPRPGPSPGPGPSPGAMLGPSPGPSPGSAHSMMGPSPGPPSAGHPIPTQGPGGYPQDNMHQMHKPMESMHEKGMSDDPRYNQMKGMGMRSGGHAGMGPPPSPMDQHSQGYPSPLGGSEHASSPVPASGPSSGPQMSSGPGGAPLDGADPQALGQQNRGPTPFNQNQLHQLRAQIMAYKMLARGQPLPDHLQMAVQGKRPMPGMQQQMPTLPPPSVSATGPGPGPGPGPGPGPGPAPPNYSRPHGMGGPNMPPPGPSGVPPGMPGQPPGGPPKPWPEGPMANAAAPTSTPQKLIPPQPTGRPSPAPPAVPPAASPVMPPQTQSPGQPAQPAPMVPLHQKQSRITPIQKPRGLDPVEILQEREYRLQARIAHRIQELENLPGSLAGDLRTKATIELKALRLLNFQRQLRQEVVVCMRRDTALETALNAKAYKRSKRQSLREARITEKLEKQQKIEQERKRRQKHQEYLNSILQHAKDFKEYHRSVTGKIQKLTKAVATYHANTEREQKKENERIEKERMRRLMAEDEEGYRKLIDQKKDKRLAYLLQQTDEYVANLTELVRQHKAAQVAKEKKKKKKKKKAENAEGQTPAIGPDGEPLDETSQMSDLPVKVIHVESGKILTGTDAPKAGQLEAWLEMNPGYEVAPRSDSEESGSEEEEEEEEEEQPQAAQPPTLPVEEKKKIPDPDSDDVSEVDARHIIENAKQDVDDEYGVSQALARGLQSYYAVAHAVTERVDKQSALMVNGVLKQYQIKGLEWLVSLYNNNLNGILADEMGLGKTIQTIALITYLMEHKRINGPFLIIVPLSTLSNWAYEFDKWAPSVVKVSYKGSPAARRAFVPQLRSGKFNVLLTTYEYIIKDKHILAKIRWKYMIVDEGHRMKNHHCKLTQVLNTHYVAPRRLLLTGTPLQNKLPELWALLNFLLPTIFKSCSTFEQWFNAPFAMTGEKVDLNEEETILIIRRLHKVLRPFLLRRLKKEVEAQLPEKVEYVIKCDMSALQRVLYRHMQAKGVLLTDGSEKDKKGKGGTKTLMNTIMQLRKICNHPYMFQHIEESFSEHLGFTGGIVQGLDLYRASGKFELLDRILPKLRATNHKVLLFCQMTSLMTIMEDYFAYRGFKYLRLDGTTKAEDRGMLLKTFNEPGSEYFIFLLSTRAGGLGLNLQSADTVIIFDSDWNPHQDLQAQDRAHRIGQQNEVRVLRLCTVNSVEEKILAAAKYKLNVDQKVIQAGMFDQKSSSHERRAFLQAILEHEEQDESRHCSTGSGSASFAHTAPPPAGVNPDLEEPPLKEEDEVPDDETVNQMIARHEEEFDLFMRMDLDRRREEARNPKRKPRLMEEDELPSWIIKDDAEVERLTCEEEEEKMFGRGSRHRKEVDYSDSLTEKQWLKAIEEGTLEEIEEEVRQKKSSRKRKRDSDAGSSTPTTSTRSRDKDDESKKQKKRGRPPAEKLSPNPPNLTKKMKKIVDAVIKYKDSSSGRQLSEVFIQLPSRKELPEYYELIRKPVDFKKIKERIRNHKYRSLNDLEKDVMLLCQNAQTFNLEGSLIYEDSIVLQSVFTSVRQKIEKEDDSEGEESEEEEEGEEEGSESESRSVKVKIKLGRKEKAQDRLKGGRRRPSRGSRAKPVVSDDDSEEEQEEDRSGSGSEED
T1 sequence (P51531 whole entry): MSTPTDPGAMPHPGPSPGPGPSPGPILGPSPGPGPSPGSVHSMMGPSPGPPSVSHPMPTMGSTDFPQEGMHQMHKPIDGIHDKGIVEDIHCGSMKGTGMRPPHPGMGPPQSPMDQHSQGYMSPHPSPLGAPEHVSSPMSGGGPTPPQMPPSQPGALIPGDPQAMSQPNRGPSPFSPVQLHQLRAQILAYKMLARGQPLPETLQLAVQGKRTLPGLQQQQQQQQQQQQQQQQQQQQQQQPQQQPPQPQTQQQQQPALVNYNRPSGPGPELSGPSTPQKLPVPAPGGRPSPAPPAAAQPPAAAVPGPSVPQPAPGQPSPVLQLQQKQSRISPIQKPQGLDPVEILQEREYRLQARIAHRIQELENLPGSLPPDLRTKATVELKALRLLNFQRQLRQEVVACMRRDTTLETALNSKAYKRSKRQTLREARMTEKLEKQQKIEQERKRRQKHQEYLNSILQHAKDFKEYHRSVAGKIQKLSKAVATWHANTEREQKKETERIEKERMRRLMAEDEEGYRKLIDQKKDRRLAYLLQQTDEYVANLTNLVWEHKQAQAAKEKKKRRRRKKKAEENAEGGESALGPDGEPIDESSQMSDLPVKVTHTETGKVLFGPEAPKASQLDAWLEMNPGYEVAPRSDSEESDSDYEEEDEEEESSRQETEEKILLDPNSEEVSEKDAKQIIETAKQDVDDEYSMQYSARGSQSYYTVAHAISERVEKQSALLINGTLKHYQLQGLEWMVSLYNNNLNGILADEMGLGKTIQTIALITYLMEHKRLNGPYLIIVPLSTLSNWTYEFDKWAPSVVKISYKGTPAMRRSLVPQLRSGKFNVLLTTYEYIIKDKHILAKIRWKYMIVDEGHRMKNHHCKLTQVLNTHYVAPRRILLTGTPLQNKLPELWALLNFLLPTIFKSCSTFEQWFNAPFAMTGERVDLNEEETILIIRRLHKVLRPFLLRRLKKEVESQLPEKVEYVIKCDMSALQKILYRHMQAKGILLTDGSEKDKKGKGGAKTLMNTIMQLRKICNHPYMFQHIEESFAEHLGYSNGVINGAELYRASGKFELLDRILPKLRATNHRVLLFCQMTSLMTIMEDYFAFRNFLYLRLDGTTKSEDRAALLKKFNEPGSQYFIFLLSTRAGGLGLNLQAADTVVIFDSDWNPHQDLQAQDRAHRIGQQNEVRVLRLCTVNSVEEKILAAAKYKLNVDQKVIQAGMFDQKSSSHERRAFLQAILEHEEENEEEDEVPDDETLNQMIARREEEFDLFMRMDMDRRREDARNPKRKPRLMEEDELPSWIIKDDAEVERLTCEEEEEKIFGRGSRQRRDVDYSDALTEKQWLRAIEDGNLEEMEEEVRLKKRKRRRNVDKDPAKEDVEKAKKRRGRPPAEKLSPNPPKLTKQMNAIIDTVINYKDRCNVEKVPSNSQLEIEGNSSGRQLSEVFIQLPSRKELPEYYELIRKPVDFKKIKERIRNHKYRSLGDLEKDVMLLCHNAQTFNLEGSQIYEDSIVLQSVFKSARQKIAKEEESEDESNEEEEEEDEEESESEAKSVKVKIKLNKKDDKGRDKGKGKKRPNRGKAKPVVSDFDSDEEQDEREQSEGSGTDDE

Turning to `Nc1nnc(-c2ccccc2O)cc1N1CCCN(c2ccnc(C#CCn3ncc4ccncc43)n2)CC1` [Compound P-116, 2-(5-(4-(2-(3-(1H-pyrazolo[3,4-c]pyridin-1-yl)prop-1-yn-1-yl)pyrimidin-4-yl)-1,4-diazepan-1-yl)-6-aminopyridazin-3-yl)phenol], the DC50 in assay [1] and in assay [2] was 50 to 500 nM in each case. Further, in assay [1] (@ 1 μM), the “SMARCA2 % Degradation @ 1 μM” value is given as “+++ (+++=>70%)”. In assay [2] (@ 1 μM), the inhibition at 1 µM was in the range of 30 to 70%.

As for `Nc1nnc(-c2ccccc2O)cc1N1CCCN(c2ccnc(C#CCn3ccc4ccccc43)n2)CC1` [Compound P-151, 2-(5-(4-(2-(3-(1H-indol-1-yl)prop-1-yn-1-yl)pyrimidin-4-yl)-1,4-diazepan-1-yl)-6-aminopyridazin-3-yl)phenol], the DC50 in assay [1] and in assay [2] was 50 to 500 nM throughout. Also, in assay [1] (@ 1 μM), the “SMARCA2 % Degradation @ 1 μM” value is “++ (++=30-70%)”. In assay [2] (@ 1 μM), this molecule returned an inhibition at 1 µM of 30 to 70%.

Take `Nc1nnc(-c2ccccc2O)cc1N1C2CCC1CN(c1ccnc(C#CCCNC(=O)c3cc4ncccn4n3)n1)C2` [Compound P-22, N-(4-(4-(8-(3-amino-6-(2-hydroxyphenyl)pyridazin-4-yl)-3,8-diazabicyclo[3.2.1]octan-3-yl)pyrimidin-2-yl)but-3-yn-1-yl)pyrazolo[1,5-a]pyrimidinc-2-carboxamide]: the half-maximal degradation concentration (DC50) in assay [1] and in assay [2] was 500 to 5000 nM in each case. Further, the “SMARCA2 % Degradation @ 1 μM” value in assay [1] (@ 1 μM) is “++ (++=30-70%)”. The molecule further gave an inhibition at 1 µM in assay [2] (@ 1 μM) of 30 to 70%.

In the case of `Nc1nnc(-c2ccccc2O)cc1N1CCN(c2ccnc(C#CCNC(=O)c3cccnc3)n2)CC1` [Compound P-4, N-[3-(4-{4-[3-amino-6-(2-hydroxyphenyl)pyridazin-4-yl]piperazin-1-yl}pyrimidin-2-yl)prop-2-yn-1-yl]pyridine-3-carboxamide], the DC50 in assay [1] and in assay [2] was 50 to 500 nM in each case. The “SMARCA2 % Degradation @ 1 μM” value in assay [1] (@ 1 μM) was “++ (++=30-70%)”. This molecule also yielded an inhibition at 1 µM in assay [2] (@ 1 μM) below 30%.

In the case of `Nc1nnc(-c2ccccc2O)cc1N1CCCN(c2ccnc(C#CCNc3cc4ncccn4n3)n2)CC1` [Compound P-120, 2-(6-amino-5-(4-(2-(3-(pyrazolo[1,5-a]pyrimidin-2-ylamino)prop-1-yn-1-yl)pyrimidin-4-yl)-1,4-diazepan-1-yl)pyridazin-3-yl)phenol], the DC50 in assay [1] and in assay [2] was 500 to 5000 nM each time. In assay [1] (@ 1 μM), the “SMARCA2 % Degradation @ 1 μM” value is reported as “++ (++=30-70%)”. The inhibition at 1 µM in assay [2] (@ 1 μM) is 30 to 70%.

As for `Cc1nn2ccn(CC#Cc3nccc(N4C5CCC4CN(c4cc(-c6ccccc6O)nnc4N)C5)n3)c(=O)c2c1C` [Compound P-103, 5-(3-(4-(3-(3-amino-6-(2-hydroxyphenyl)pyridazin-4-yl)-3,8-diazabicyclo[3.2.1]octan-8-yl)pyrimidin-2-yl)prop-2-yn-1-yl)-2,3-dimethylpyrazolo[1,5-a]pyrazin-4(5H)-one], the DC50 in assay [1] and in assay [2] was 50 to 500 nM throughout. For the same molecule, in assay [1] (@ 1 μM), the “SMARCA2 % Degradation @ 1 μM” value is reported as “+++ (+++=>70%)”. The inhibition at 1 µM in assay [2] (@ 1 μM) is 30 to 70%.

On to `Cc1nn2ccn(CC#Cc3nccc(N4CCCN(c5cc(-c6ccccc6O)nnc5N)CC4)n3)c(=O)c2c1C` [Compound P-115, 5-(3-(4-(4-(3-amino-6-(2-hydroxyphenyl)pyridazin-4-yl)-1,4-diazepan-1-yl)pyrimidin-2-yl)prop-2-yn-1-yl)-2,3-dimethylpyrazolo[1,5-a]pyrazin-4(5H)-one], for which the DC50 in assay [1] and in assay [2] was 50 to 500 nM in each case. Moreover, the “SMARCA2 % Degradation @ 1 μM” value in assay [1] (@ 1 μM) was “+++ (+++=>70%)”. For the same molecule, in assay [2] (@ 1 μM), the inhibition at 1 µM fell in the range of 30 to 70%.

With `Nc1nnc(-c2ccccc2O)cc1N1CC[C@@H]2[C@H]1CN2c1ccnc(C#CCNC(=O)c2cc3ncccn3n2)n1` [Compound P-47, N-(3-(4-((1R,5R)-2-(3-amino-6-(2-hydroxyphenyl)pyridazin-4-yl)-2,6-diazabicyclo[3.2.0]heptan-6-yl)pyrimidin-2-yl)prop-2-yn-1-yl)pyrazolo[1,5-a]pyrimidine-2-carboxamide], the DC50 in assay [1] and in assay [2] was 500 to 5000 nM each time. For the same molecule, the “SMARCA2 % Degradation @ 1 μM” value in assay [1] (@ 1 μM) was “+ (+=<30%)”. For the same molecule, the inhibition at 1 µM in assay [2] (@ 1 μM) was below 30%.

As to `Nc1nnc(-c2ccccc2O)cc1N1CCCN(c2ccnc(C#CCNC(=O)NC3CC3)n2)CC1` [Compound P-324, 0-[6-amino-5-(4-{2-[3-(3-cyclopropylureido)-1-propynyl]-4-pyrimidinyl}-1,4-diazepan-1-yl)-3-pyridazinyl]phenol], the DC50 in assay [1] and in assay [2] was 500 to 5000 nM in each case. The “SMARCA2 % Degradation @ 1 μM” value in assay [1] (@ 1 μM) is “++ (++=30-70%)”. In addition, in assay [2] (@ 1 μM), the inhibition at 1 µM is below 30%.

Consider `C[C@H]1CCN(c2cc(-c3ccccc3O)nnc2N)CCN1c1ccc(C#N)c(C#CCN2CC[C@H](F)C2)n1` [Compound P-411, 6-{(S)-4-[3-amino-6-(o-hydroxyphenyl)-4-pyridazinyl]-7-methyl-1,4-diazepan-1-yl}-2-{3-[(S)-3-fluoro-1-pyrrolidinyl]-1-propynyl} nicotinonitrile], for which the DC50 in assay [1] and in assay [2] was 50 to 500 nM throughout. The “SMARCA2 % Degradation @ 1 μM” value in assay [1] (1 μM) is reported as “++ (++=30-70%)”. In assay [2] (1 μM), this molecule had an inhibition at 1 µM below 30%.

Take `Nc1nnc(-c2ccccc2O)cc1N1CCCN(c2ccnc(C#CC3CC3)n2)CC1` [Compound P-359, 0-(6-amino-5-{4-[2-(2-cyclopropylethynyl)-4-pyrimidinyl]-1,4-diazepan-1-yl}-3-pyridazinyl)phenol]: the DC50 in assay [1] and in assay [2] was 50 to 500 nM each time. The “SMARCA2 % Degradation @ 1 μM” value in assay [1] (@ 1 μM) is “++ (++=30-70%)”. In addition, the inhibition at 1 µM in assay [2] (@ 1 μM) was below 30%.

`CC1(F)CCN(CC#Cc2nccc(N3C4CCC3CN(c3cc(-c5ccccc5O)nnc3N)C4)n2)C1` (centres unmarked) [Compound P-194, o-[6-amino-5-(8-{2-[3-(3-fluoro-3-methyl-1-pyrrolidinyl)-1-propynyl]-4-pyrimidinyl}-3,8-diazabicyclo[3.2.1]oct-3-yl)-3-pyridazinyl]phenol]: the DC50 in assay [1] and in assay [2] was below 50 nM in each case. For the same molecule, the “SMARCA2 % Degradation @ 1 μM” value in assay [1] (@ 1 μM) is “++ (++=30-70%)”. The inhibition at 1 µM in assay [2] (@ 1 μM) was in the range of 30 to 70%.

On to `Cc1c(C(=O)NCC#Cc2nccc(N3CCN(c4cc(-c5ccccc5O)nnc4N)CC3)n2)nn(C)c1C` [Compound P-8, N-[3-(4-{4-[3-amino-6-(2-hydroxyphenyl)pyridazin-4-yl]piperazin-1-yl}pyrimidin-2-yl)prop-2-yn-1-yl]-1,4,5-trimethyl-1H-pyrazole-3-carboxamide], for which the DC50 is 50 to 500 nM in assay [1] and below 50 nM in assay [2]. Besides, the “SMARCA2 % Degradation @ 1 μM” value in assay [1] (@ 1 μM) is “++ (++=30-70%)”. Moreover, the inhibition at 1 µM in assay [2] (@ 1 μM) lay in the range of 30 to 70%.

`CCc1cc(C(=O)NCC#Cc2nccc(N3CCN(c4cc(-c5ccccc5O)nnc4N)CC3)n2)nn1C` [Compound P-2, N-[3-(4-{4-[3-amino-6-(2-hydroxyphenyl)pyridazin-4-yl]piperazin-1-yl}pyrimidin-2-yl)prop-2-yn-1-yl]-5-ethyl-1-methyl-1H-pyrazole-3-carboxamide]: the DC50 in assay [1] and in assay [2] was 50 to 500 nM each time. The “SMARCA2 % Degradation @ 1 μM” value in assay [1] (@ 1 μM) is reported as “++ (++=30-70%)”. In assay [2] (@ 1 μM), the inhibition at 1 µM lay in the range of 30 to 70%.
